# Read-outs that look alike come from different tables or passages of the source.
# What was measured:
# [1] = biological target: T1, hNET (Homo sapiens, UniProt P23975); experiment: Radioligand binding at hNET (N-methyl-[3H]nisoxetine)
# T1 construct: expressed in transfected cells; host or cells: HEK 293 cells (membrane preparations)
# [2] = biological target: T2, hα1A adrenergic receptor (Homo sapiens, UniProt P35348); experiment: Radioligand binding at hα1A adrenergic receptor ([3H]prazosin); settings: mean ± SD
# T2 construct: expressed in transfected cells; host or cells: Chinese hamster ovary cells (membrane preparations)
# T2 sequence (P35348 1-466): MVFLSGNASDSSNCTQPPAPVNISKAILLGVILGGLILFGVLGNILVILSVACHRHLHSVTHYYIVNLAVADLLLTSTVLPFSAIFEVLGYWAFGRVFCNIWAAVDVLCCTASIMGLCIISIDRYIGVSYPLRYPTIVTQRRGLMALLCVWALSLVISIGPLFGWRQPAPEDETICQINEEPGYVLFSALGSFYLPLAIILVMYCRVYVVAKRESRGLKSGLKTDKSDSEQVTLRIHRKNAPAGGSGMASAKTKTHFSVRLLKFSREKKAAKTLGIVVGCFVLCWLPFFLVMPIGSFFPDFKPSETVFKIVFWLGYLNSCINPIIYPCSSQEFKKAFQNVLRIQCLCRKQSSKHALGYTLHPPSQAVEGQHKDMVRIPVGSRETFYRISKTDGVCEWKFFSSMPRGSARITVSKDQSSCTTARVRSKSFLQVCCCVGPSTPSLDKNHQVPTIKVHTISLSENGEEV
# [3] = biological target: T3, rat TAAR1 (Rattus norvegicus, UniProt Q923Y9); experiment: Radioligand binding at rat TAAR1 ([3H]RO5166017)
# T3 construct: expressed in transfected cells; host or cells: HEK 293 cells (membrane preparations)
# T3 sequence (Q923Y9 whole entry): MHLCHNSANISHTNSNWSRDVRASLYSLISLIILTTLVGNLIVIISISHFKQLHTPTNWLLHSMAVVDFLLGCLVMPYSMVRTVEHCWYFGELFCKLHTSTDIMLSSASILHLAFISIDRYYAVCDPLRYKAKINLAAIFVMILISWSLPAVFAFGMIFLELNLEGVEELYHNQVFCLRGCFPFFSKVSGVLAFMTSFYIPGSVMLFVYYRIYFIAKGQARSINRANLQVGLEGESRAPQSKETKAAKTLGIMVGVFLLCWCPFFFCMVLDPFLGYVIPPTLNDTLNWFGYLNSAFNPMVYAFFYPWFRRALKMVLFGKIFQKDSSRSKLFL
# [4] = biological target: T4, hSERT (Homo sapiens, UniProt P31645); experiment: Radioligand binding at hSERT ([3H]citalopram)
# T4 construct: expressed in transfected cells; host or cells: HEK 293 cells (membrane preparations)
# T4 sequence (P31645 whole entry): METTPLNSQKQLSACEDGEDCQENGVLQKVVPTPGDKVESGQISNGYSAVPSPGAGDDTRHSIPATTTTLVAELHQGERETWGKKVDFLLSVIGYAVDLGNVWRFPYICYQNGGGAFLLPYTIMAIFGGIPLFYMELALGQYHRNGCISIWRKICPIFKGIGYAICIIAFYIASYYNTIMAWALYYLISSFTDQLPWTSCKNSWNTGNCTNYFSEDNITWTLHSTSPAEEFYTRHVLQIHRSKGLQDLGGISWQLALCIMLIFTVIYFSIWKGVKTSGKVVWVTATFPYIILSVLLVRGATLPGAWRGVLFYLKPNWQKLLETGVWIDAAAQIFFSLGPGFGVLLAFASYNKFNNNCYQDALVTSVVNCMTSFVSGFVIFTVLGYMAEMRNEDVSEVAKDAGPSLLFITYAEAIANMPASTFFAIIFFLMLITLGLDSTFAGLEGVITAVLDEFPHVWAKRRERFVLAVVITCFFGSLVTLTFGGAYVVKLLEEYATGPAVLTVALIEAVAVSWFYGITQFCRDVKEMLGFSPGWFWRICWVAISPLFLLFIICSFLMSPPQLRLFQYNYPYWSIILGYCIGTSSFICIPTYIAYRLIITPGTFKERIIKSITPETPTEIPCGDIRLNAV
# [5] = biological target: T5, mouse TAAR1 (Mus musculus, UniProt Q923Y8); experiment: Radioligand binding at mouse TAAR1 ([3H]RO5166017)
# T5 construct: expressed in transfected cells; host or cells: HEK 293 cells (membrane preparations)
# T5 sequence (Q923Y8 whole entry): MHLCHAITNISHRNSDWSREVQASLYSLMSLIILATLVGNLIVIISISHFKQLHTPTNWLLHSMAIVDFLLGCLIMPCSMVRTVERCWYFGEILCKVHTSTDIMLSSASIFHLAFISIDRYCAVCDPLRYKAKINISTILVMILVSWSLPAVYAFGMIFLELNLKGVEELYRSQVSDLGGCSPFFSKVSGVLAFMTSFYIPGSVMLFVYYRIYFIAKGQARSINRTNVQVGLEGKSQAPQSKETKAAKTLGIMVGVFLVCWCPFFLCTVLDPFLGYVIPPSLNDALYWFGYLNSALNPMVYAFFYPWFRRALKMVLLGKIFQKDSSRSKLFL
# [6] = biological target: T6, h5-HT2A receptor (Homo sapiens, UniProt P28223); experiment: Radioligand binding at h5-HT2A receptor ([3H]ketanserin); settings: for Selectivity 5-HT2A vs. 5-HT2C / Selectivity 5-HT2A vs. 5-HT1A: binding ratio; for Ki: h5-HT2A Receptor binding Ki ± SD, [3H]ketanserin, mean ± SD
# T6 construct: expressed in transfected cells; host or cells: HEK 293 cells (membrane preparations)
# T6 sequence (P28223 whole entry): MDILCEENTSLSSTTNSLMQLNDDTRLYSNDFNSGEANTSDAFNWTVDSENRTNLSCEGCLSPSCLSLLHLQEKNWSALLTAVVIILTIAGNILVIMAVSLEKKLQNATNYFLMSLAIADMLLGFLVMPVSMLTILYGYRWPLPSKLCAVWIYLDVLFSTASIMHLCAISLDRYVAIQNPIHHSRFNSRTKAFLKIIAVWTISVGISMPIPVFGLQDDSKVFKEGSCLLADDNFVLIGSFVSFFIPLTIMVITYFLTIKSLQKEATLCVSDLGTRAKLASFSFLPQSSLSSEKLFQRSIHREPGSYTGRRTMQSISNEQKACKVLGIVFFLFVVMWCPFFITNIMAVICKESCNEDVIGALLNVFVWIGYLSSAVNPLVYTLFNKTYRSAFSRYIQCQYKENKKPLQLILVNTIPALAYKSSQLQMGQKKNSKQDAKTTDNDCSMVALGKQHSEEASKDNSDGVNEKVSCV
# [7] = biological target: T7, hα2A adrenergic receptor (Homo sapiens, UniProt P08913); experiment: Radioligand binding at hα2A adrenergic receptor ([3H]rauwolscine)
# T7 construct: expressed in transfected cells; host or cells: Chinese hamster lung cells (membrane preparations)
# T7 sequence (P08913 1-465): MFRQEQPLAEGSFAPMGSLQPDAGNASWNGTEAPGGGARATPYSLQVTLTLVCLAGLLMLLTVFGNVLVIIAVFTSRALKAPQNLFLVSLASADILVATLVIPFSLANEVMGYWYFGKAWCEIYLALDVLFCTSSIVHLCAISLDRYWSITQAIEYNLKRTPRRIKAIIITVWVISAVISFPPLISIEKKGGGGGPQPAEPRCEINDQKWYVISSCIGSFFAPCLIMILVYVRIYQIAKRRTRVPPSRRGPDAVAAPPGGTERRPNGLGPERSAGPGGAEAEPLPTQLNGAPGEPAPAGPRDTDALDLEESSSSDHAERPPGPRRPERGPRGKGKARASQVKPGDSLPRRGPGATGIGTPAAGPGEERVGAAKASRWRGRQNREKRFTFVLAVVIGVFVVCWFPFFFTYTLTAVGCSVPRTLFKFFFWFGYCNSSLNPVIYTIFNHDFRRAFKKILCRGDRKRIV
# [8] = biological target: T8, h5-HT1A receptor (Homo sapiens, UniProt P08908); experiment: Radioligand binding at h5-HT1A receptor ([3H]8-OH-DPAT)
# T8 construct: expressed in transfected cells; host or cells: HEK 293 cells (membrane preparations)
# T8 sequence (P08908 1-422): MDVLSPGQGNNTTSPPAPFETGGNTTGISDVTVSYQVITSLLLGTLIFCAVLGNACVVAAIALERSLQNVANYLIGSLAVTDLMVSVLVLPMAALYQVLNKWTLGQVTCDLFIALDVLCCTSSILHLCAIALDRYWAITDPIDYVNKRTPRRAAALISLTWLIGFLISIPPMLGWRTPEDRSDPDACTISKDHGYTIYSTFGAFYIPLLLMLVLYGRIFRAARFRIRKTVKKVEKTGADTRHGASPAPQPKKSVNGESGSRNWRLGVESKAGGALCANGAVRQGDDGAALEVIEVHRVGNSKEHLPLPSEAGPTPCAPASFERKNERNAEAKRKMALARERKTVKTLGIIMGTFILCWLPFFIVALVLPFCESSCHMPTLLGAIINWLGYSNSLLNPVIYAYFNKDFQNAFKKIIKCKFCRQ
# [9] = biological target: T9, dopaminergic hD2 receptor (Homo sapiens, UniProt P14416); experiment: Radioligand binding at dopaminergic hD2 receptor ([3H]spiperone)
# T9 construct: expressed in transfected cells; host or cells: HEK 293 cells (membrane preparations)
# T9 sequence (P14416 whole entry): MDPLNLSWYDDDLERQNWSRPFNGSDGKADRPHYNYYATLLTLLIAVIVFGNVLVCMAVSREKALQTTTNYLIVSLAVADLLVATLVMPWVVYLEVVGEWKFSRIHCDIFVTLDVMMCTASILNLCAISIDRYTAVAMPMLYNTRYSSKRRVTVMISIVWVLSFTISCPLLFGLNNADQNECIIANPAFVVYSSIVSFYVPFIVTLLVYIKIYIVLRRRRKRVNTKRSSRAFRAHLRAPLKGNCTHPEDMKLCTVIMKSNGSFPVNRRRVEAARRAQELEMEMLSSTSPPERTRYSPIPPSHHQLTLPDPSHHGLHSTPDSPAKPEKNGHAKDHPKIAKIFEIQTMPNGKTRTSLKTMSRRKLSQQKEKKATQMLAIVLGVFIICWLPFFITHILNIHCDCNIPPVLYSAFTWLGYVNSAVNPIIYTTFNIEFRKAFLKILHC
# [10] = biological target: human 5-HT2B receptor (Homo sapiens, UniProt P41595); settings: for Emax: HEK293, read-out: h5-HT2B Activation efficacy max ± SD, relative to 5-HT = 100%; for EC50: h5-HT2B Activation potency EC50 ± SD, HEK 293 cells, calcium FLIPR, mean ± SD
# Sequence of human 5-HT2B receptor (P41595 whole entry): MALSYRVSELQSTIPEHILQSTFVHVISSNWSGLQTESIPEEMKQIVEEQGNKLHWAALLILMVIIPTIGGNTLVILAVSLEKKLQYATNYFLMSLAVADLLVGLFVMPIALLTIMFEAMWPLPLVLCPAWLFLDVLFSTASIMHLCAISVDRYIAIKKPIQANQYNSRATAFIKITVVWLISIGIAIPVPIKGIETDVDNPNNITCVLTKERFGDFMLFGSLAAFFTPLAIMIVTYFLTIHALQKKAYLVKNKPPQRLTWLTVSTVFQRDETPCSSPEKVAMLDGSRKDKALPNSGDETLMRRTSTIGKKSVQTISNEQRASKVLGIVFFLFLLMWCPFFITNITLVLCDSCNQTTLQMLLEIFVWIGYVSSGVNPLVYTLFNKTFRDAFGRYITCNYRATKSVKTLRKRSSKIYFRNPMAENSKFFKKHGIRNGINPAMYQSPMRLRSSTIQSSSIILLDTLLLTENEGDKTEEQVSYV
# [11] = biological target: T10, hDAT (Homo sapiens, UniProt Q01959); experiment: Radioligand binding at hDAT ([3H]WIN35,428)
# T10 construct: expressed in transfected cells; host or cells: HEK 293 cells (membrane preparations)
# T10 sequence (Q01959 whole entry): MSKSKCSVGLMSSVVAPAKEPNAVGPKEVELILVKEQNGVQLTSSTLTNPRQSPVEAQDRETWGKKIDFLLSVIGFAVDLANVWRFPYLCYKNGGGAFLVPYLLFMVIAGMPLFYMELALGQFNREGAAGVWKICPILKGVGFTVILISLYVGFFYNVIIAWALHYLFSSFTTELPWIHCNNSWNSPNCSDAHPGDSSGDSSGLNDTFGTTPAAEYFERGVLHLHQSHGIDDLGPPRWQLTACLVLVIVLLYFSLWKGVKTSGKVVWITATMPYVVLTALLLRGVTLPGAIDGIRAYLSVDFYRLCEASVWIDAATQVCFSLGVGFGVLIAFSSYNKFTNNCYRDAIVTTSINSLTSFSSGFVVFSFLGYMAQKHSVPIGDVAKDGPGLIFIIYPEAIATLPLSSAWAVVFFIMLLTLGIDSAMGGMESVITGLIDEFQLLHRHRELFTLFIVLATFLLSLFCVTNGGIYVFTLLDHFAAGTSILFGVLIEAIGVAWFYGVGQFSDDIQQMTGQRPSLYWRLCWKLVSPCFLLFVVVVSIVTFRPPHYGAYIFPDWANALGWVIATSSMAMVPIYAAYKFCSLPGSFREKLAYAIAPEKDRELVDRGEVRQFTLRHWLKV
# [12] = biological target: T11, h5-HT2C receptor (Homo sapiens, UniProt P28335); experiment: biochemical; assay type: binding; settings: [3H]mesulergine; mean ± SD; read-out: h5-HT2C Receptor binding Ki ± SD
# T11 construct: expressed in transfected cells; host or cells: HEK 293 cells (membrane preparations)
# T11 sequence (P28335 33-458): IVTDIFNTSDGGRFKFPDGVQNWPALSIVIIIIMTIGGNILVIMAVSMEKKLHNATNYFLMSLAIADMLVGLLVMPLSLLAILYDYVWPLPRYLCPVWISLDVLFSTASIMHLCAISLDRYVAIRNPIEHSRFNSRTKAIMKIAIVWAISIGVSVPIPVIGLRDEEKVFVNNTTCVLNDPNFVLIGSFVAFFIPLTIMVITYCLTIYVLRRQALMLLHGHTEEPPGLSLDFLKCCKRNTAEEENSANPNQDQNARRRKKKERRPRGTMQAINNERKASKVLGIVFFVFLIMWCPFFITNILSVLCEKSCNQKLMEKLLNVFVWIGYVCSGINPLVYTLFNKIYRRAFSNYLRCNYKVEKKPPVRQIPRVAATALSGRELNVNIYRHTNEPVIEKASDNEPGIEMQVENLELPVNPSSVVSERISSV
# [13] = biological target: human 5-HT2A receptor (Homo sapiens, UniProt P28223); settings: for Emax: NIH3T3, read-out: h5-HT2A Activation efficacy max ± SD, relative to 5-HT = 100%
# Sequence of human 5-HT2A receptor (P28223 whole entry): as the sequence (P28223 whole entry) above
# [14] = test system: humans; settings: cited from earlier work
# T1 sequence (P23975 whole entry): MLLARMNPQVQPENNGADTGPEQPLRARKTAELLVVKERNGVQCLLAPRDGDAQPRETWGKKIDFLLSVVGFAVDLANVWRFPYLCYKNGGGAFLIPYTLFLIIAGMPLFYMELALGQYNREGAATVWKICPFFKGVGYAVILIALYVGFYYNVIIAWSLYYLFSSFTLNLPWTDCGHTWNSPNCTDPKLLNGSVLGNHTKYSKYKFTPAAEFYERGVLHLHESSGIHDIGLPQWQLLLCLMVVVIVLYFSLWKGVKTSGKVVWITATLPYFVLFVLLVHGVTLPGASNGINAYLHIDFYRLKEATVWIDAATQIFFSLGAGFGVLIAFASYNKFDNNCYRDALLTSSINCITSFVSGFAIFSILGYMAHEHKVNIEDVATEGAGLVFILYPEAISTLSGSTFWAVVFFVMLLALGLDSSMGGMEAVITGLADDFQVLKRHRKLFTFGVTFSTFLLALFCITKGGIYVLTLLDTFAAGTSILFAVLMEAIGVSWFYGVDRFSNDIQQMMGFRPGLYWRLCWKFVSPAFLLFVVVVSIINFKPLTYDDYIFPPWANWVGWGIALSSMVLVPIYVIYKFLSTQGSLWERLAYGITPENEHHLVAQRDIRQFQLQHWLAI
SMILES,Ki [1] [µM],Ki [2] [µM],Ki [3] [µM],Ki [4] [µM],Ki [5] [µM],Selectivity 5-HT2A vs. 5-HT2C [6],Ki [6] [µM],Ki [7] [µM],Ki [8] [µM],Ki [9] [µM],Emax [10] [%],EC50 [10] [µM],Ki [11] [µM],Ki [12] [µM],EC50 [13] [µM],Emax [13] [%],also measured
"COc1cc(CCN)cc(OC)c1OCC(F)F [compound 17, 4-(2,2-difluoroethoxy)-3,5-dimethoxyphenethylamine]",> 9.7,> 8.7,2.1,> 7.5,> 4.2,0.9,2.9,2.7,> 5.6,> 6.3,25 ± 7,1.7,> 8.5,2.7,1.3,44 to 78,–
"C=CCOc1c(OC)cc(CC(C)N)cc1OC (stereo not drawn) [compound 31, 4-allyloxy-3,5-dimethoxyamphetamine]",> 9.7,> 8.7,3.6,> 7.5,3.3,1.7,1.1,> 5.1,> 5.6,> 6.3,–,> 10,> 8.5,1.7,0.19 ± 0.03,–,"Active dose in humans ([14]; ref Trachsel et al., 2013): 15 to 30 mg; Increase in 5-HT2A receptor affinity compared with TMA (6) ([6]; ratio of Ki values): ≥ 10 fold"
"COc1cc(CCN)cc(OC)c1OC(F)F [compound 12, 4-difluoromethoxy-3,5-dimethoxyphenethylamine]",> 9.7,8,0.88 ± 0.18,> 7.5,> 4.2,0.8,3.5,1.7,2.5,> 6.3,–,> 10,> 8.5,2.8,1.5,85 to 94,Increase in human potency compared to mescaline (5) ([14]; ref Trachsel 2012): 4 fold; Selectivity 5-HT2A vs. 5-HT1A [6]: 0.7
"COc1cc(CC(C)N)c(OC)cc1Br (stereo not drawn) [compound 2, 4-bromo-2,5-dimethoxyamphetamine, reference compound]",–,–,–,–,–,–,–,–,–,–,–,–,–,–,–,–,Psychedelic / active dose in humans ([14]; ref Shulgin and Shulgin 1991): 1 to 3 mg
"COc1cc(CCN)cc(OC)c1OC(C)C [compound 22, 3,5-dimethoxy-4-isopropoxyphenethylamine]",> 9.7,> 8.7,> 4.7,> 7.5,> 4.2,0.9,6.2,1.2,> 5.6,> 6.3,–,> 10,> 8.5,5.4,1.9,–,Selectivity 5-HT2A vs. 5-HT1A [6]: >1
"COc1cc(CC(C)N)c(OC)cc1C (stereo not drawn) [compound 7, 2,5-dimethoxy-4-methylamphetamine, reference compound]",–,–,–,–,–,–,–,–,–,–,–,–,–,–,–,–,Psychedelic / active dose in humans ([14]; ref Shulgin and Shulgin 1991): 3 to 10 mg
"COc1cc(CC(C)N)cc(OC)c1OCCF (stereo not drawn) [compound 20, 3,5-dimethoxy-4-(2-fluoroethoxy)amphetamine]",> 9.7,> 8.7,> 4.7,> 7.5,> 4.2,–,12,> 5.1,> 5.6,> 6.3,18 to 29,0.8 ± 0.24,> 8.5,8.4,0.12 ± 0.04,86 to 102,Selectivity 5-HT2A vs. 5-HT1A [6]: >1
"COc1cc(CCN)cc(OC)c1SC [compound 10, 4-thiomescaline, reference compound]",–,–,–,–,–,–,–,–,–,–,–,–,–,–,–,–,Increase in human potency compared to mescaline (5) ([14]; ref Shulgin and Shulgin 1991): 10 fold; Psychedelic / active dose in humans ([14]; ref Shulgin and Shulgin 1991): 20 to 40 mg
"COc1cc(CCN)cc(OC)c1OCCF [compound 16, 3,5-dimethoxy-4-(2-fluoroethoxy)phenethylamine]",> 9.7,> 8.7,> 4,> 7.5,> 4.2,–,> 12,3.7,> 5.6,> 6.3,29 ± 7,2.3,> 8.5,5.7,5.7,85 to 94,–
"COc1cc(CC(C)N)cc(OC)c1OCC(F)F (stereo not drawn) [compound 19, 4-(2,2-difluoroethoxy)-3,5-dimethoxyamphetamine]",> 9.7,> 8.7,3.9,> 7.5,> 4.2,1.7,1.5,> 5.1,> 5.6,> 6.3,18 to 29,0.26 ± 0.03,> 8.5,2.6,0.12 ± 0.02,86 to 102,–
"COc1cc(CC(C)N)cc(OC)c1OCCCF (stereo not drawn) [compound 27, 3,5-dimethoxy-4-(3-fluoropropoxy)-amphetamine]",> 9.7,> 8.7,> 4.7,> 7.5,2.8,1.7,2.6,> 5.1,> 5.6,> 6.3,–,> 10,> 8.5,4.4,0.057 ± 0.002,–,–
